Measured values: the supplement of paper PMC10307832

What was measured:
BI-2536 + Foretinib = compound: CC[C@@H]1C(=O)N(C)c2cnc(Nc3ccc(C(=O)NC4CCN(C)CC4)cc3OC)nc2N1C1CCCC1 [BI-2536] + COc1cc2c(Oc3ccc(NC(=O)C4(C(=O)Nc5ccc(F)cc5)CC4)cc3F)ccnc2cc1OCCCN1CCOCC1 [Foretinib] (partner 0.25 µM); experiment: relative viability (nuclei count vs DMSO), 5 days (fraction); higher = more cells survive
Outline: (§1)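 Medians of duplicate plates are given as relative viability. That measure is the nuclei count in treated wells divided by the count in vehicle wells. Counts were taken on 4× images of lung cancer cell lines in 1536-well plates, 5 days after pin-tool dosing the day after seeding with one drug alone or a fixed anchor-drug dose plus five library-drug doses (not always all listed) in √10 steps.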

[1] = compound: CC1CC(=O)N(C2=CN=C(N=C2N1C3CCCC3)NC4=C(C=C(C=C4)C(=O)NC5CCN(CC5)C)OC)C [NPK76-II-72-1] + CC1(C)CCC(c2ccc(Cl)cc2)=C(CN2CCN(c3ccc(C(=O)NS(=O)(=O)c4ccc(N[C@H](CCN5CCOCC5)CSc5ccccc5)c(S(=O)(=O)C(F)(F)F)c4)cc3)CC2)C1 [Navitoclax] (partner 0.5 µM); experiment: as above
Outline: as §1

Cell Line | relative viability (BI-2536 + Foretinib; first compound 0.01 µM) | relative viability (BI-2536 + Foretinib; first compound 0.03162 µM) | relative viability (BI-2536 + Foretinib; first compound 0.1 µM) | relative viability (BI-2536 + Foretinib; first compound 0.3162 µM) | relative viability (BI-2536 + Foretinib; first compound 1 µM) | relative viability ([1]; first compound 0.01 µM) | relative viability ([1]; first compound 0.03162 µM) | relative viability ([1]; first compound 0.1 µM) | relative viability ([1]; first compound 0.3162 µM) | relative viability ([1]; first compound 1 µM)
LCLC-103H | 0.802 | 0.854 | 0.618 | 0.161 | 0.153 | – | – | – | – | –
EKVX | 0.702 | 0.833 | 0.755 | 0.237 | 1.08 | 0.909 | 1.03 | 0.865 | 0.648 | 1.13
LXF-289 | 1.03 | 0.826 | 0.613 | 0.0393 | 0.0552 | 0.877 | 0.964 | 0.954 | 0.88 | 0.941
ABC-1 | 1.18 | 0.868 | 0.711 | 0.249 | 0.187 | – | – | – | – | –
NCI-H650 | 0.981 | 0.952 | 0.678 | 0.207 | 0.155 | – | – | – | – | –
NCI-H1650 | 1.16 | 1.14 | 0.484 | 0.135 | 0.115 | 1.08 | 1.12 | 1.23 | 1.12 | 1.07
NCI-H2085 | 1.02 | 0.686 | 0.707 | 0.199 | 0.276 | 1.11 | 1.12 | 1.06 | 1.06 | 1.19
NCI-H1793 | 0.585 | 0.364 | 0.202 | 0.164 | 0.173 | 0.399 | 0.642 | 0.477 | 0.302 | 0.41
LC-2-ad | 0.909 | 0.386 | 0.289 | 0.285 | 0.322 | 0.469 | 0.501 | 0.599 | 0.395 | 0.541
COR-L 105 | 1.12 | 0.848 | 0.913 | 0.366 | 0.344 | 0.801 | 0.742 | 0.799 | 0.717 | 0.761
NCI-H1355 | 0.871 | 0.968 | 0.601 | 0.149 | 0.18 | 0.881 | 0.959 | 0.928 | 0.871 | 0.993
H3255 | 0.769 | 1.03 | 0.49 | 0.261 | 0.218 | 0.556 | 0.494 | 0.52 | 0.173 | 0.639
NCI-H1993 | 0.774 | 0.828 | 0.694 | 0.634 | 0.537 | 1.05 | 0.969 | 0.884 | 0.706 | 1.01
NCI-H1734 | 0.886 | 0.889 | 0.464 | 0.199 | 0.176 | 0.861 | 0.896 | 0.823 | 0.766 | 0.866
HOP-62 | 1.19 | 1.05 | 0.767 | 0.182 | 0.146 | 0.973 | 1.12 | 0.947 | 1.06 | 0.954
LOU-NH91 | 0.987 | 0.861 | 0.857 | 0.363 | 0.273 | 0.635 | 0.66 | 0.666 | 0.517 | 0.833
ChaGo-K-1 | 0.851 | 0.972 | 0.687 | 0.164 | 0.217 | 0.937 | 0.955 | 1.09 | 0.944 | 0.64
